Experimental data taken from publication PMC8667898, “Topo II inhibition and DNA intercalation by new phthalazine-based derivatives as potent anticancer agents: design, synthesis, anti-proliferative, docking, and in vivo studies” (Journal of Enzyme Inhibition and Medicinal Chemistry, 2021).

Experiments:
[1] = Histopathological examination of liver tissues of SEC-bearing mice; assay type: in vivo, Swiss albino mice; conditions: H&E stain, ×200
Experimental: The experimental animals were randomly divided into four groups. Group 1 served as the normal saline control (5 ml/kg B.Wt., I.P.). Group 2 served as the SEC control (1 × 10^6 cells/mouse). Group 3 served as the compound-treated group (5 mg/kg B.Wt., I.P.). […] Bodyweight and survival were recorded daily until the 24th day in both treated and control groups. At the end of the experiment, the blood of each group was collected under light anaesthesia to the estimate of hematological and biochemical assays. The anaesthetised animals were then sacrificed for evaluation of the antitumor activity and histopathological examination.
Specimens of liver-sacrificed mice were fixed in 10% saline formalin. The fixed liver specimens were dehydrated in ascending series of ethyl alcohol and embedded in paraffin. Sections at […] thicknesses were stained with haematoxylin and eosin and examined under the light microscope.

[2] = system: HepG-2 cells (hepatocellular carcinoma); assay: MTT anti-proliferative assay, HepG-2; assay type: cell-based, human
Experimental: (§1) Anti-proliferative activities of the target compounds were assessed via the standard MTT method[38–40] against three cancer cell lines, namely, hepatocellular carcinoma (HepG-2), colorectal carcinoma (HCT-116), and human breast adenocarcinoma (MCF-7).
(§2) Anti-proliferative activity of the synthesised compounds was estimated using the MTT assay protocol[8]^,[38–40] as shown in Supplementary data.
(§3) 4.2.1. In vitro anti-proliferative activity against MCF-7, HepG-2 and HCT-116 The cells were cultured in RPMI-1640 medium supplemented with 10% fetal bovine serum (FBS), penicillin (100 unit /mL) and streptomycin sulphate (100µg/mL) at 37 °C in a 5% CO2 incubator.
(§4) Then, cells were dropped in 96-well plates at a density of 3-8 × 10^3 cells/well and incubated for two days in a 5% CO2 incubator at 37 °C. Then, the cells were treated with the synthesized compounds and the cell cultures were continued incubated for 24 h. However, Different concentrations of the compound under test (0.0, 5.0, 12.5, 25.0 and 50 mg/ml) were added to the cell monolayer. Then, (3-[4,5-dimethylthiazol-2-yl]- 2,5-diphenyltetrazolium bromide) MTT solution (20 µl, 5mg/mL) was added to each well and incubated for additional 4 h. The formed purple crystals of MTT-formazan were dissolved in 100 µl DMSO each well; the absorbance of each well was measured at 570 nm using a plate reader (EXL 800, USA). All of the compounds were tested three times. The relative cell viability in percentage was calculated.
(§5) The data represented the mean of three independent experiments in triplicate and were expressed as means ± SD. […]

[3] = system: HCT-116 cells (colorectal carcinoma); assay: MTT anti-proliferative assay, HCT-116; assay type: cell-based, human
Experimental: as §1, with “(MCF-7). Doxorubicin was used in this test as a positive control.” for “(MCF-7).”
as §2, §3
as §4, with “calculated. The results for IC50 values of the active compounds are […]” for “calculated.”
as §5
(§6) of the cells could survive. […]

human Topo II = target: T1, human Topo II (Homo sapiens, UniProt P11388); assay: Topoisomerase II inhibitory activity (TopoGEN drug screening kit); assay type: biochemical; conditions: three independent experiments
T1 construct: purchased TopoGEN, Inc., Columbus
T1 sequence (P11388 whole entry): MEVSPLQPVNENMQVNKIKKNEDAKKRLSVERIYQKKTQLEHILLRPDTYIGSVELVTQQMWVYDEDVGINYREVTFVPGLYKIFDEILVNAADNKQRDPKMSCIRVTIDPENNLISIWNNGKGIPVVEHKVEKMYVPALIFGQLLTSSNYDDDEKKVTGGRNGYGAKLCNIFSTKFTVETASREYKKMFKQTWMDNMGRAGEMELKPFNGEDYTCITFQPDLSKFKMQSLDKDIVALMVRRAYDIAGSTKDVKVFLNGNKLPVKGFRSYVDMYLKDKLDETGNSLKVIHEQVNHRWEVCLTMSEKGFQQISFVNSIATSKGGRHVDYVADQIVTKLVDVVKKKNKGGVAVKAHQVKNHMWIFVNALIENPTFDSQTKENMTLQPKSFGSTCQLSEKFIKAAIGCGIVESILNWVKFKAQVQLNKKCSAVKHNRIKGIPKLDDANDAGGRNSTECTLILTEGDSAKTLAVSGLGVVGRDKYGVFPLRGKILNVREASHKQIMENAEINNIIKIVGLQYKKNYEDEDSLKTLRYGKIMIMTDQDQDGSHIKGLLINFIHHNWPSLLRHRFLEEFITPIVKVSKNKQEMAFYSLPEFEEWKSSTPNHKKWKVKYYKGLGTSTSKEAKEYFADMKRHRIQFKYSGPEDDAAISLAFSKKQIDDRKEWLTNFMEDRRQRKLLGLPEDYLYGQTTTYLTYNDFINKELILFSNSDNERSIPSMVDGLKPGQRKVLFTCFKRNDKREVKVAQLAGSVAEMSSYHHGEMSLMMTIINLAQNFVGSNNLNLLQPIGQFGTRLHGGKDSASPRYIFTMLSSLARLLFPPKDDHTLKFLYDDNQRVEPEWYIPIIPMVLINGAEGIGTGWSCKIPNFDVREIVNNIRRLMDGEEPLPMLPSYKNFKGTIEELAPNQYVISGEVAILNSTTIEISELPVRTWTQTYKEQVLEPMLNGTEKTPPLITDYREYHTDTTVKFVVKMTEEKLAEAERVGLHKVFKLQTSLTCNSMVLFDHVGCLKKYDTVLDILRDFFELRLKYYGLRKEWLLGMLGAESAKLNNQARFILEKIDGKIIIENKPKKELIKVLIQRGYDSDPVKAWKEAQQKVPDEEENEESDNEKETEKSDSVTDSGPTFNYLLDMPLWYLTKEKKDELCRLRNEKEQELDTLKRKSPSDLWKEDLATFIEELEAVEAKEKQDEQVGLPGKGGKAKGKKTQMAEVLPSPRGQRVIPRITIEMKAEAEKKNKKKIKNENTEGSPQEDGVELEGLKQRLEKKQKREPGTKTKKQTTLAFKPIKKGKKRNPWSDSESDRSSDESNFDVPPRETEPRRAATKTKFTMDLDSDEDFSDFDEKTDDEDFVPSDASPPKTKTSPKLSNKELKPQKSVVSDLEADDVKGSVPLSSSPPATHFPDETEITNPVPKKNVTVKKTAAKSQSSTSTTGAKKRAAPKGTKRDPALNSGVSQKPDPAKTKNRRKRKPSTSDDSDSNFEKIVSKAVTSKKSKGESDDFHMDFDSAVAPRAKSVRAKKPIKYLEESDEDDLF
Experimental: The activity of topoisomerase II was determined according to the reported procedure described by Patra et al.[42]. […]
4.2.3. Measurement of topoisomerase II activity
Compounds (8a, 8b, 9a, 9c, 9d, 12a, and 12b) were further evaluated to assess their Topo II inhibitory activities. In this test, Topo II drug screening kit (TopoGEN, Inc., Columbus) was utilized to determine the Topo II activity. […] A typical enzyme […]
reaction contained a mixture of human Topo II (2 µL), substrate super coiled pHot1 DNA (0.25 µg), 50 µg/mL test compound (2 µL), and assay buffer (4 µL). The reaction started upon incubation of the mixture in 37 °C for 30 min. The reaction was terminated by addition of 10% sodium dodecylsulphate (2 µL) and proteinase K (50 µg/mL) at 37 °C for 15 min. followed by incubation for 15 min at 37 °C.
Then, the DNA was run on 1% agarose gel in BioRad gel electrophoresis system for 1–2 h followed by staining with GelRedTM stain for 2 h and destained for 15 min with TAE buffer. The gel was imaged Via BioRad’s Gel DocTMEZ system. Both supercoiled and linear strands DNA were incorporated in the gel as markers for DNA-Topo II intercalators. The results of IC50 values were calculated using the GraphPad Prism version 5.0. Each reaction was performed in duplicate, and at least three independent determinations of each IC50 were made.

[4] = system: MCF-7 cells (human breast adenocarcinoma); assay: MTT anti-proliferative assay, MCF-7; assay type: cell-based; conditions: Homo sapiens, MCF7, MTT, mean ± SD of three separate experiments; read-out: In vitro Cytotoxicity IC50 MCF-7
Experimental: as §1, with “(MCF-7). Doxorubicin was used in this test as a positive control.” for “(MCF-7).”
as §2, §3
as §4, with “calculated. The results for IC50 values of the active compounds are […]” for “calculated.”
as §5, §6

[5] = ratio of IC50 values vs doxorubicin

In the case of `CCCc1nnc2c3ccccc3c(NN=Cc3ccc([N+](=O)[O-])cc3)nn12` [Compound 9d, 6-[2–(4-Nitrobenzylidene)hydrazineyl]-3-propyl-[1,2, 4]triazolo[3,4-a]phthalazine], the “Histopathological finding in liver tissue” value [1] is reported as “hepatic cells are near normal and show tissue improvement as compared with a little hydropic degeneration”, the IC50 ([2]; Homo sapiens, HepG2, MTT, mean ± SD of three separate experiments, read-out: In vitro Cytotoxicity IC50 HepG-2) is reported as 5.08 ± 0.17 µM and the “times more active than doxorubicin, HepG2” value [2, 5] is reported as 1.63 times. The IC50 ([3]; Homo sapiens, HCT-116, MTT, mean ± SD of three separate experiments, read-out: In vitro Cytotoxicity IC50 HCT-116) was 4.74 ± 0.15 µM, the “times more active than doxorubicin, HCT-116” value [3, 5] was 2.03 times and the IC50 (human Topo II) was 7.02 ± 0.54 µM. The IC50 [4] was 4.95 ± 0.1 µM.
